Laboratory results published in BindingDB's records for patent US20250122221 (Nanjing Zaiming Pharmaceutical, 2025).

Molecular target: DNA polymerase theta (Homo sapiens, UniProt O75417)
Test: POLQ Enzyme Activity Inhibition Assay
Protocol: The compounds to be tested were diluted to different concentrations in dimethyl sulfoxide (DMSO) using the Echo 650 pipetting system, and transferred to a 384-well plate, 20 μL/well of 100 nM POLQ was added, and the mixture was incubated at room temperature for 15 minutes. […] 20 μL/well of reaction mixture solution was added to start the enzyme reaction. […] The concentration range was from 10 μM to 0.0005 μM, and the final concentration of DMSO in the system was 0.2% v/v. The 384-well plate was reacted at room temperature for 20 minutes, and then the OD value at 340 nm was read with an Envision microplate reader.

Sequence of DNA polymerase theta (O75417 whole entry): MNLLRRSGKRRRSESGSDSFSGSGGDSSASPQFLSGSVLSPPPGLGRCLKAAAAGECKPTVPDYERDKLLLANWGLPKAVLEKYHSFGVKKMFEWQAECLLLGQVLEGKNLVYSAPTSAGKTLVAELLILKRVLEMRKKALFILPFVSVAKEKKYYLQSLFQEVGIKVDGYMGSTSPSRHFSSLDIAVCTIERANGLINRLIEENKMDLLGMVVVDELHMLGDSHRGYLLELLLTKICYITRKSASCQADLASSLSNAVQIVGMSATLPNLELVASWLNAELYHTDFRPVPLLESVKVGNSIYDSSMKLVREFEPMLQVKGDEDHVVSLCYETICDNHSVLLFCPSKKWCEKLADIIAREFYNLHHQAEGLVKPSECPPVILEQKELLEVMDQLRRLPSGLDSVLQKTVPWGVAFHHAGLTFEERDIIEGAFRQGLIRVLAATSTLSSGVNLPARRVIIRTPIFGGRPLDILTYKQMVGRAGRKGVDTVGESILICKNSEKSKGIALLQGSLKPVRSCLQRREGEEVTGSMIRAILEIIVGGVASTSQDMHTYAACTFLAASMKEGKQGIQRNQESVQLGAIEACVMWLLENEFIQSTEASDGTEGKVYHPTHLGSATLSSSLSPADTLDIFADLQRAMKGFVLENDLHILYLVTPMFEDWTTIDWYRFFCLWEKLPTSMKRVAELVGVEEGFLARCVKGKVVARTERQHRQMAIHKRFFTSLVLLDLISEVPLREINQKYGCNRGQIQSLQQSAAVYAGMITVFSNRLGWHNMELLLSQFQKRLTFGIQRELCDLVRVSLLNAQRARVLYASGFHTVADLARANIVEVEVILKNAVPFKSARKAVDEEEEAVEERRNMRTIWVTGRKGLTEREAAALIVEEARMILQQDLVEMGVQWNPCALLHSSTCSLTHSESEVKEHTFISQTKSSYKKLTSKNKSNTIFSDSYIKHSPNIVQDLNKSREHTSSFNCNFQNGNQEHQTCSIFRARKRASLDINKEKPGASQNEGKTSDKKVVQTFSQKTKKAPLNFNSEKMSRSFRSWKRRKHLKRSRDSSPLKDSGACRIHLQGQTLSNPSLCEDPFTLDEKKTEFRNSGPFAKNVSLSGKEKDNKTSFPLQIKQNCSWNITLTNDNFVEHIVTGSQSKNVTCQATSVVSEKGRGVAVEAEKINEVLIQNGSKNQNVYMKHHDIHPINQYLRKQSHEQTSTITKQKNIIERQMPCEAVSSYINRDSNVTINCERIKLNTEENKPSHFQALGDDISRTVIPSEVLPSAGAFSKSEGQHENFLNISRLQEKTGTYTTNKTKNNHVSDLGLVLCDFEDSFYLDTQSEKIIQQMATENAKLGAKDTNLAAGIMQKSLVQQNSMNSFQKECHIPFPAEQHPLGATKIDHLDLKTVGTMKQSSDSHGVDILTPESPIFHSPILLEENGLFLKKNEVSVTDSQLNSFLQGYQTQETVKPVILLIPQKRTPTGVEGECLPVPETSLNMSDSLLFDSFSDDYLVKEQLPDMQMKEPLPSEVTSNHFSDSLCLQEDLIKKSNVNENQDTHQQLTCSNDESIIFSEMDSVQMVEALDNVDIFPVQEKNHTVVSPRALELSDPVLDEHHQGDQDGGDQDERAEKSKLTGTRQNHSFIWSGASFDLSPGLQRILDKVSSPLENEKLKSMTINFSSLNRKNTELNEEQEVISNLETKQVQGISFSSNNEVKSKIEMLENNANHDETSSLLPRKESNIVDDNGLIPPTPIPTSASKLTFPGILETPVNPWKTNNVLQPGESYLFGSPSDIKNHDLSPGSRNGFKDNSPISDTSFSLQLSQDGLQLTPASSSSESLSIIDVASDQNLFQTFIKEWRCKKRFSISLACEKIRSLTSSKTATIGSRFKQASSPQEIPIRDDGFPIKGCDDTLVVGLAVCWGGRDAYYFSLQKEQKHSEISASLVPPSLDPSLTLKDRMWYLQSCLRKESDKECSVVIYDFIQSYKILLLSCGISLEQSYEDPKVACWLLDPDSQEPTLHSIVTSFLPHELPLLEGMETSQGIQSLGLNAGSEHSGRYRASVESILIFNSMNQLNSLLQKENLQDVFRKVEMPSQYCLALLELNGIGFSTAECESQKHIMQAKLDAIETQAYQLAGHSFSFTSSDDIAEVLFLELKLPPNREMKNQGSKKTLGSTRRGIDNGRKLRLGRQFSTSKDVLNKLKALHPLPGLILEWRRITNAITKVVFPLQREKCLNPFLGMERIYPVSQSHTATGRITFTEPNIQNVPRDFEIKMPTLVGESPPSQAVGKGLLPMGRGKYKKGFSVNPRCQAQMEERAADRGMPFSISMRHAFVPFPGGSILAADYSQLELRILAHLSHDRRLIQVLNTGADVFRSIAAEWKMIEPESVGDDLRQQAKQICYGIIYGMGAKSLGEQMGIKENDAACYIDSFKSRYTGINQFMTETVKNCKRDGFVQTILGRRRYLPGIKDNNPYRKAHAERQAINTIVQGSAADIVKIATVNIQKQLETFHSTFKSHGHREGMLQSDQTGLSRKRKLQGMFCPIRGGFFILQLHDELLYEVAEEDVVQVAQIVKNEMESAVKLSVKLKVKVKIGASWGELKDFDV

COc1ccccc1-c1cc2c(cc1C(=O)Nc1nc3ncc(-c4ccc(C#N)cc4)nc3s1)OCO2 [US20250122221, Compound 56]
IC50: < 100 nM
